Test results from patent publication US9173951B2, “Carbohydrate-based drug delivery polymers and conjugates thereof” (NEKTAR THERAPEUTICS, priority 2008, dated 2015).

Test system: db/db diabetic mice
Assay: Blood glucose levels in db/db diabetic mice after i.p. injection
Assay type: in vivo
Procedure: Blood glucose levels were measured At different time points after dosing.
Study Procedure: Animals were acclimated to researcher's handling procedures. Baseline glucose levels were measured prior to drug administration. Outlier animals with glucose level <300 or >600 mg/dL were excluded from the study. Animals were assigned randomly to different groups, as follows:
At different time points (1, 2, 4, 8, and 24 hrs), blood was collected by tail clipping, and glucose level was measured using a One Touch® Ultra glucometer (Johnson & Johnson; Life Scan Ltd.)

insulin
Glucose level, mean (5 ug/mouse ip, 1 hr): 265 mg/dL
reduction of glucose level vs time 0 (5 ug/mouse ip, 1 hr): 48%
Glucose level, mean (5 ug/mouse ip, 2 hr): 352 mg/dL
reduction of glucose level vs time 0 (5 ug/mouse ip, 2 hr): 31%
Glucose level, mean (5 ug/mouse ip, 4 hr): 587 mg/dL
Glucose level, mean (5 ug/mouse ip, 8 hr): 538 mg/dL
Glucose level, mean (5 ug/mouse ip, 24 hr): 538 mg/dL
Glucose level, mean (5 ug/mouse ip, time 0 (baseline)): 510 mg/dL
Glucose level, mean (50 ug/mouse ip, 1 hr): 210 mg/dL
reduction of glucose level vs time 0 (50 ug/mouse ip, 1 hr): 53%
Glucose level, mean (50 ug/mouse ip, 2 hr): 150 mg/dL
reduction of glucose level vs time 0 (50 ug/mouse ip, 2 hr): 67%
Glucose level, mean (50 ug/mouse ip, 4 hr): 550 mg/dL
Glucose level, mean (50 ug/mouse ip, 8 hr): 558 mg/dL
Glucose level, mean (50 ug/mouse ip, 24 hr): 541 mg/dL
Glucose level, mean (50 ug/mouse ip, time 0 (baseline)): 445 mg/dL

dextran-butyrALD-40K-insulin [20b]
Glucose level, mean (250 ug/mouse ip, 1 hr): 263+39 mg/dL
reduction of glucose level vs time 0 (250 ug/mouse ip, 1 hr): 47%
Glucose level, mean (250 ug/mouse ip, 1 hr, listed as Dex-Ins): 263 mg/dL
Glucose level, mean (250 ug/mouse ip, 2 hr): 192+36 mg/dL
reduction of glucose level vs time 0 (250 ug/mouse ip, 2 hr): 61%
Glucose level, mean (250 ug/mouse ip, 2 hr, listed as Dex-Ins): 192 mg/dL
Glucose level, mean (250 ug/mouse ip, 4 hr): 462 mg/dL
Glucose level, mean (250 ug/mouse ip, 8 hr): 494 mg/dL
Glucose level, mean (250 ug/mouse ip, 24 hr): 517 mg/dL
Glucose level, mean (250 ug/mouse ip, time 0 (baseline)): 495+32 mg/dL
Glucose level, mean (250 ug/mouse ip, time 0 (baseline), listed as Dex-Ins): 495 mg/dL
